This note sets out measurements from patent publication US20260256793A1, “ALTERATION OF F-BOX AND WD REPEAT DOMAIN CONTAINING 7 (FBXW7) GENE AS A PREDICTIVE BIOMARKER FOR TREATING CANCER WITH WEE1 INHIBITORS” (Zeno Management, Inc., priority 2023, published 2026).

Experiment [1] concerns Parental DLD-1 colorectal cancer cells. Kind of experiment: Western blot (Jess) of WEE1, pCDK1, replication stress, DNA damage and apoptosis markers after Azenosertib treatment, parental cells. It counts as cell-based. The protocol:
(§1) FIG. 8 is a Western Blot image showing levels of FBXW7, WEE1 kinase, Cyclin E1, and other replication stress, DNA damage, apoptosis markers in DLD-1 parental and DLD-1 FBXW7-knockout colorectal cancer cells treated with DMSO (negative control) and 250 nM, 1 μM, and 10 µM of Azenosertib for 8 hours, 24 hours, or 48 hours.
(§2) Parental DLD-1 colorectal cancer cells or FBXW7 knockout (FBXW7-KO) DLD-1 cells (Creative Biogene, Cat No. CSC-RT0018, Lot No. 081723ZYX) were cultured in RPMI 1640 medium (ATCC modification) (Giboco) supplemented with 10% FBS (Gibco) and 1% penicillin-streptomycin (Gibco). Cells were maintained at 37° C. in an atmosphere containing 5% CO2.
(§3) The cultured cells were seeded at optimal density in 6-well plates, allowed to adhere overnight, and then treated with Azenosertib (250 nM, 1 μM, or 10 μM), with DMSO treatment as a negative control. After 8, 24, and 48 hours of drug exposure, cells were harvested, rinsed with PBS, lysed with cold RIPA buffer (Sigma) containing protease and phosphatase inhibitors for 15 minutes, and centrifuged at 4° C., 15,000 rpm for 15 minutes. Protein concentrations were measured using the Pierce BCA Protein Assay kit (Thermo Fisher). Jess™ plates were loaded and run according to the manufacturer's instructions (Bio-Techne). Primary antibodies anti-FBXW7 and anti-Cyclin E1 were purchased from Abcam, anti-phospho-H3, anti-Vinculin, anti-γH2AX, anti-phospho-CDK1, anti-phsopho-Chk1, anti-cleaved caspase 3, anti-Wee1, and anti-CDK1 were purchased from Cell Signaling Technology.

Experiment [2] relates to solid tumor patients (HGSOC, USC, endometrial, colorectal, peritoneum cancer), FBXW7-mutated or wild-type. As to the kind of experiment: Clinical outcome of Azenosertib monotherapy by FBXW7 mutational status (composite cohort of 356 patients). The note with it: daily dose at least 300 mg; for Objective Response Rate (ORR): continuous or intermittent schedule, p<0.02, FIG. 9A; for target lesion size reduction (median): p<0.05, FIG. 9B. The class given is in vivo, human. The protocol: FIG. 9B is a waterfall plot of the tumor size change in FBXW7-mutated or wild-type human subjects.
The predictive value of FBXW7 was investigated in a composite cohort of 356 patients treated with a daily dose of at least 300 mg of Azenosertib monotherapy on a continuous dosing schedule or an intermittent dosing schedule (e.g., 5 days on/2 days off, 4 days on/3 days off) and profiled with high-throughput DNA sequencing. Specifically, this composite cohort of patients was treated with a daily dose of 300 mg, or 350 mg, or 400 mg, or 450 mg of Azenosertib monotherapy on a continuous dosing schedule (i.e., QD, 7 days a week without any intermission), a daily dose of 300 mg, or 350 mg, or 400 mg, or 450 mg, or of 500 mg of Azenosertib monotherapy on an intermittent 5 days on/2 days off or 4 days on/3 days off schedule). The source of mutational status was a combination of local (reports from clinical sites) or central testing from either tumor or cell-free DNA. The mutational status was determined as mutated when at least one of the reports reported a pathogenic mutation and unmutated (wild-type) when all reports covering the FBXW7 gene were negative. The cohort investigated consists of patients diagnosed with high-grade serous ovarian carcinoma or HGSOC (N=211), uterine serous carcinoma or USC (N=57) or other solid tumor cancers including endometrial cancer, colorectal cancer, and peritoneum cancer […]. The patients mutated for FBXW7 (N=17-including […], 7 USC, 2 endometrial and 3 colorectal), were more likely to respond to Azenosertib monotherapy (Objective Response Rate or ORR=41% (7/17) for FBXW7-mutated patients vs. 16% (53/339) for FBXW7-wild-type patients; p<0.02—FIG. 9A [BOR=Best Overall Response; CR=Complete Response; PR—Partial Response; uPR=Unconfirmed Partial Response; SD=Stable Disease; PD=Progressive Disease).

Experiment [3] concerns FBXW7 knockout (FBXW7-KO) DLD-1 cells. As to the kind of experiment: Western blot (Jess) of WEE1, pCDK1, replication stress, DNA damage and apoptosis markers after Azenosertib treatment, FBXW7 knockout cells. It counts as cell-based. The protocol: as §1, §2, §3
For orientation: Immunoblotting shows a protein as a band on a membrane.

Where [4] appears, read: 250 nM, 1 μM, 10 μM, 8, 24, 48 hours, vs DMSO, FIG. 8.
Where [5] appears, read: FBXW7-KO DLD-1, 250 nM, 1 μM, 10 μM, 8, 24, 48 hours, vs DMSO, FIG. 8.
Where [6] appears, read: FBXW7-KO DLD-1, 10 μM, more significant DNA damage compared to parental cell line.

Structures are written as SMILES.

As to `C=CCn1c(=O)c2cnc(Nc3ccc(N4CCN(C)CC4)cc3)nc2n1-c1ccc2c(n1)[C@@](O)(CC)CC2` [Azenosertib], the WEE1 levels entry in experiment [1] (setting [4]) and in experiment [3] (setting [5]) was “dose-dependent decrease” in each case. In addition, the “phospho-CDK1 (pCDK1) levels” value in experiment [1] (setting [4]) and in experiment [3] (setting [5]) was “dose-dependent decrease” in each case. The pCDK1 level entry in experiment [1] (10 μM, 48 hours) is “decreasing significantly”; in experiment [3] (FBXW7-KO DLD-1, 10 μM, 48 hours) it was “decreasing significantly”. Further, the “Objective Response Rate (ORR)” value in experiment [2] (FBXW7-mutated patients (7/17)) amounted to 41%; in experiment [2] (FBXW7-wild-type patients (53/339)) it was 16%. Also, the “target lesion size reduction (median)” value in experiment [2] (FBXW7-mutated patients) is −41%; in experiment [2] (second-named group, FBXW7-wild-type patients), −8%. Besides, the “gamma-H2AX (γH2AX) levels (DNA damage)” value in experiment [3] (setting [6]) is “increase”. Also, in experiment [3] (setting [6]), the “phospho-Chk1 (pChk1) levels (DNA damage)” value is “increase”. In experiment [3] (FBXW7-KO DLD-1, e.g. 10 µM at 24 hours and 48 hours, compared to parental cell line), the “cleaved caspase 3 levels (apoptosis)” value was “increase”. The “sensitivity to treatment with Azenosertib” value in experiment [3] (FBXW7-KO cells compared to the parental cell line) was “more sensitive”.
